Data as given in article PMC9784969, “SARS-CoV-2 Inhibitors Identified by Phenotypic Analysis of a Collection of Viral RNA-Binding Molecules” (Pharmaceuticals, 2022).
Read-outs that look alike come from different tables or passages of the source.

Key:
SARS-CoV-2 USA-WA1/2020 [1] = test: microbe, parasite or virus in culture; assay type: cell-based; settings: read-out: SARS-CoV-2 EC50
in vitro [2] = settings: African green monkey, uninfected Vero E6 cells
HIV-1 = settings: cited from earlier work
[3] = system: subdomain IIB of the rev recognition element (RRE) of the HIV-1 genomic RNA; settings: cited from earlier work
in vitro [4] = settings: human, uninfected 293T-ACE2 cells
SARS-CoV-2 USA-WA1/2020 [5] = test: microbe, parasite or virus in culture; assay type: cell-based; settings: read-out: SARS-CoV-2 EC50; remark: listed apart in the source
SCoV2 USA-WA1/2020 = assay type: cell-based; settings: 293T-ACE2, MOI 2, 8-h single cycle
SCoV2 RNA elements = test: ligand-based 1H NMR (1D, CPMG, wLOGSY), six RNA elements compared; assay type: binding, SARS-CoV-2; settings: CSP, LB, CPMG and wLOGSY perturbations; 300 µM compound
Description: We first used ligand-based ^1H NMR experiments to analyze the interaction of the selected compounds with each of the six RNA elements specified above, including one-dimensional, Carr–Purcell–Meiboom–Gill (CPMG) and waterLOGSY (wLOGSY) experiments. These assays detect changes in the ^1H signals of the ligand upon RNA association (Figure 4A), and have been successfully used to evaluate small-molecule binding to RNA motifs, including elements of the SCoV2 genome.
Each ligand (at a concentration of 300 μM) was mixed with a smaller quantity of RNA in an aqueous solution containing 25 mM potassium phosphate (pH 6.2), 150 mM KCl, 3 mM MgCl2, and 10% D2O. RNA–ligand molar ratios of 1:50 and 1:100 were explored (with 6 and 3 μM RNA, respectively). […] The water signal was suppressed from one-dimensional experiments with a watergate sequence. The CPMG experiments were acquired with 100, 200, 300, and 400 ms relaxation delays before acquisition, and water suppression was achieved by presaturation. wLOGSY experiments employed a selective Gaussian 180° pulse at the water frequency and an NOE mixing time of 1.5 s and suppressed the water signal by excitation sculpting. All spectra were acquired in the absence and presence of RNA.
All ligand signals were individually analyzed. For clomiphene citrate, the signals corresponding to cis and trans forms were identified by comparing the spectrum of clomiphene citrate with those of the individual stereoisomers. In CPMG experiments, the binding of the compounds to the different RNA sequences was quantified as 100 minus the percentage of ligand signal area in the +RNA CPMG spectrum relative to the corresponding signal area in the -RNA CPMG spectrum. In wLOGSY experiments, binding was quantified with the LOGSY factor, or % of ligand signal in the difference spectrum between the +RNA and –RNA wLOGSY spectra, relative to the corresponding signal in the one-dimensional -RNA reference spectrum. In one-dimensional experiments, line broadening (LB) was quantified as explained for CPMG spectra.

[6] = Severe acute respiratory syndrome coronavirus 2, Vero C1008, 48 h, Vero E6 cells, MOI 0.025, two days
[7] = ref 4 (Table S1 list: Medina-Trillo et al. 2020)
[8] = ref 5 (Table S1 list: Sedgwick, Ph.D. thesis 2018)
[9] = Vero E6 cells, MOI 0.025, two days
[10] = ref 2 (Table S1 list: Prado et al. 2018)
[11] = Severe acute respiratory syndrome coronavirus 2, 293T/ACE2, 48 h
[12] = Severe acute respiratory syndrome coronavirus 2, Vero C1008, 48 h
[13] = ref 3 (Table S1 list: Simba-Lahuasi et al., Unpublished results)
[14] = ref 1 (Table S1 list: Prado et al. 2016)

COc1ccc(-c2cc(C)c(-c3cc(CCN)c(OC)cc3CCN)cc2C)cc1CCN [3a]
EC50 (SARS-CoV-2 USA-WA1/2020 [1]; [6]): > 20 µM
CC50 at 2 days (in vitro [2]): > 20 µM
Previous target virus activity (HIV-1; [7]): yes
Previous target RNA binding [3, 7]: yes

COc1ccc(-c2ccc(-c3ccc(O)c(CCN)c3)c(C)c2)c(CCN)c1 [compound 1]
EC50 (SARS-CoV-2 USA-WA1/2020 [1]; [6]): > 20 µM
CC50 at 2 days (in vitro [2]): > 20 µM
Previous target RNA binding [3, 8]: yes

Cc1cc(-c2cc(CCN)ccc2CCN)c(C)cc1-c1ccccc1CCN [compound 4]
EC50 (SARS-CoV-2 USA-WA1/2020 [1]; [6]): > 20 µM
CC50 at 2 days (in vitro [2]): > 20 µM
Previous target virus activity (HIV-1; [7]): yes
Previous target RNA binding [3, 7]: yes

CCN(CC)CCNc1cc(-c2cccs2)nc2ccccc12 [1d]
EC50 (SARS-CoV-2 USA-WA1/2020 [1]; [6]): 6.64 µM
EC50 (SARS-CoV-2 USA-WA1/2020 [1]; [9]): 6.24 µM
Previous target virus activity (HIV-1; [10]): yes
Previous target RNA binding [3, 10]: yes
CC50 at 2 days (in vitro [4]): 7.5 µM

Cc1cc(-c2c(CCN)cccc2CCN)cc(C)c1-c1cc(CCCN)c(O)c(CCCN)c1 [compound 11]
EC50 (SARS-CoV-2 USA-WA1/2020 [1]; [6]): > 20 µM
CC50 at 2 days (in vitro [2]): > 20 µM
Previous target virus activity (HIV-1; [8]): yes
Previous target RNA binding [3, 8]: yes

OC(CNCC1CCCO1)Cn1c2ccc(Br)cc2c2cc(Br)ccc21 (centres unmarked) [1b]
Previous target virus activity (HIV-1; [10]): yes
Previous target virus activity (HIV-1; [7]): no
Previous target RNA binding [3, 10]: yes
Previous target RNA binding [3, 7]: yes

CCC(CC)COC(=O)[C@H](C)N[P@](=O)(OC[C@H]1O[C@@](C#N)(c2ccc3c(N)ncnn23)[C@H](O)[C@@H]1O)Oc1ccccc1 [Remdesivir, reference compound]
EC50 (SARS-CoV-2 USA-WA1/2020 [5]; [11]): 0.0104 µM
EC50 (SARS-CoV-2 USA-WA1/2020 [1]; [12]): 0.428 µM
CC50 at 2 days (in vitro [2]): > 20 µM
inhibition when added at +4 h (SCoV2 USA-WA1/2020): decreased
CC50 at 2 days (in vitro [4]): > 2 µM

CCN(CC)CCOc1ccc(C(O)(Cc2ccc(Cl)cc2)c2ccc(C)cc2)cc1 (centres unmarked) [Triparanol, reference compound]
EC50 (SARS-CoV-2 USA-WA1/2020 [1]; [6]): 0.811 µM
CC50 at 2 days (in vitro [2]): > 20 µM
Previous target virus activity (HIV-1; [13]): yes
Previous target RNA binding [3, 13]: yes

CCC(=C(c1ccc(OC)cc1)c1ccc(OC)cc1)c1cn(CC(O)CN(C)C)c2ccccc12 (centres unmarked) [Bisphenylindol]
EC50 (SARS-CoV-2 USA-WA1/2020 [1]; [6]): 2.1 µM
Previous target virus activity (HIV-1; [13]): yes
Previous target RNA binding [3, 13]: yes

CCC(=C(c1ccccc1)c1ccc(OCCN(C)CCOc2ccc(C(=C(CC)c3ccccc3)c3ccccc3)cc2)cc1)c1ccccc1 [Tamoxifen dimer]
EC50 (SARS-CoV-2 USA-WA1/2020 [1]; [6]): > 20 µM
CC50 at 2 days (in vitro [2]): > 20 µM
Previous target virus activity (HIV-1; ref Unpublished): no
Previous target RNA binding ([3]; ref Unpublished): yes

Cc1cc(-c2c(CCN)cccc2CCN)cc(C)c1-c1cc(CCN)c(Oc2ccccc2)c(CCN)c1 [compound 6]
EC50 (SARS-CoV-2 USA-WA1/2020 [1]; [6]): > 20 µM
CC50 at 2 days (in vitro [2]): > 20 µM
Previous target virus activity (HIV-1; [8]): yes
Previous target RNA binding [3, 8]: yes

Fc1nc(N2CCNCC2)c(F)c(Sc2ccc(Cl)cc2)c1F [2a]
EC50 (SARS-CoV-2 USA-WA1/2020 [5]; [11]): 0.63 µM
EC50 (SARS-CoV-2 USA-WA1/2020 [1]; [12]): 6.24 µM
CC50 at 2 days (in vitro [2]): > 20 µM
Previous target virus activity (HIV-1; [10]): yes
Previous target RNA binding [3, 10]: yes
CC50 at 2 days (in vitro [4]): 5.32 µM

C=C(C)Cn1c(NCCCn2ccnc2)nc2c1c(=O)[nH]c(=O)n2C [17a5]
EC50 (SARS-CoV-2 USA-WA1/2020 [1]; [6]): > 20 µM
CC50 at 2 days (in vitro [2]): > 20 µM
Previous target virus activity (HIV-1; [10]): yes
Previous target RNA binding [3, 10]: yes

CN(C)CCOc1cc2c(c3ccccc13)-c1ccccc1C2=O [1a]
EC50 (SARS-CoV-2 USA-WA1/2020 [1]; [9]): > 20 µM
Previous target virus activity (HIV-1; [10]): yes
Previous target virus activity (HIV-1; [7]): yes
Previous target RNA binding [3, 10]: yes
Previous target RNA binding [3, 7]: yes

Trans-clomiphene
Previous target virus activity (HIV-1; ref Unpublished): yes
Previous target RNA binding ([3]; ref Unpublished): yes

O=C1c2c(O)ccc(O)c2C(=O)c2c(NCCNCCO)ccc(NCCNCCO)c21 [Mitoxantrone, reference compound]
EC50 (SARS-CoV-2 USA-WA1/2020 [1]; [6]): 2.4 µM
CC50 at 2 days (in vitro [2]): 0.806 µM
Previous target virus activity (HIV-1; [14]): yes
Previous target RNA binding [3, 14]: yes

CCC(=C(c1ccccc1)c1ccc(OCCN(C)C)cc1)c1ccc(O)cc1 [4'OH-tamoxifen]
EC50 (SARS-CoV-2 USA-WA1/2020 [1]; [6]): 0.74 µM
CC50 at 2 days (in vitro [2]): 2.7 µM
Previous target virus activity (HIV-1; ref Unpublished): yes
Previous target RNA binding ([3]; ref Unpublished): yes

O=C(O)c1cn(C2CC2)c2cc(N3CCNCC3)c(F)cc2c1=O [Cyprofloxacine, reference compound]
EC50 (SARS-CoV-2 USA-WA1/2020 [1]; [6]): > 20 µM
Previous target virus activity (HIV-1; [14]): yes
Previous target RNA binding [3, 14]: yes

CC1CN(C(c2ccccc2)(c2ccccc2)c2ccccc2)CCN1 (centres unmarked) [Trityl-piperazine]
EC50 (SARS-CoV-2 USA-WA1/2020 [5]; Severe acute respiratory syndrome coronavirus 2, 48 h, 293T-ACE2 cells, MOI 0.25, two days): 0.27 µM
EC50 (SARS-CoV-2 USA-WA1/2020 [1]; [6]): 0.644 µM
CC50 at 2 days (in vitro [2]): 2.22 µM
Previous target virus activity (HIV-1; [13]): yes
Previous target RNA binding [3, 13]: yes
CC50 at 2 days (in vitro [4]): > 3.67 µM

CN1CCC(=C2c3ccccc3C=Cc3ccccc32)CC1 [Cyprohetadine, reference compound]
CC50 at 2 days (in vitro [2]): > 20 µM
Previous target virus activity (HIV-1; [14]): yes
Previous target RNA binding [3, 14]: yes

CN(C)CCOc1ccc(C(=C(CCO)c2ccccc2)c2ccccc2)cc1 [βOH-tamoxifen]
EC50 (SARS-CoV-2 USA-WA1/2020 [1]; [6]): 5.4 µM
CC50 at 2 days (in vitro [2]): 22.2 µM
Previous target virus activity (HIV-1; ref Unpublished): yes
Previous target RNA binding ([3]; ref Unpublished): yes

Cc1cc(-c2c(CCNC(=N)N)cccc2CCNC(=N)N)cc(C)c1-c1cc(CCCNC(=N)N)cc(CCCNC(=N)N)c1 [compound 18]
EC50 (SARS-CoV-2 USA-WA1/2020 [1]; [6]): > 20 µM
CC50 at 2 days (in vitro [2]): > 20 µM
Previous target virus activity (HIV-1; [8]): yes
Previous target RNA binding [3, 8]: yes

Cis-clomiphene
Previous target virus activity (HIV-1; ref Unpublished): yes
Previous target RNA binding ([3]; ref Unpublished): yes
RNA binding preference (SCoV2 RNA elements): bound RNA with stronger affinity than the trans form
